The text below walks through data of patent US12103924B2, “Mitogen-activated protein kinase kinase (MEK) degradation compounds and methods of use” (Icahn School of Medicine at Mount Sinai, priority 2020, dated 2024).

Format in all cases: cell-based
In experiment [1] the test system is HT-29 cells. Put plainly: MTT cell viability assay, HT-29. Conditions: Homo sapiens, 72 h, MTT assay, 3 d treatment, serial dilutions.
Description: MTT assay was conducted for HT-29 cells after 3 d treatment with indicated compounds with serial dilutions.
MTT assay was conducted for HT-29 (A) and SK-MEL-28 (B) cells after 3 d treatment with DMSO or indicated compounds with serial dilutions. Clonogenic assay was performed in HT-29 (C) and SK-MEL-28 (D) cells for 14 d treatment with DMSO or indicated compounds with 10, 30 and 100 nM, in duplicate, respectively. Cells were then stained by crystal violet.
HT-29 or SK-MEL-28 cells (300 cells per well) were seeded in 12-well plates. After 20 h, cells were treated with DMSO or indicated concentrations of compounds in duplicate for two weeks. Medium containing indicated compounds was changed every 3 days. Cells were then fixed and stained with the solution containing 6% (v/v) glutaraldehyde (G5882, Sigma-Aldrich) and 0.5% (w/v) crystal violet for 1 h. To remove the background color, the plates with stained cells were immersed in running water until clear colonies were observed. The plates were dried at RT. The staining images were obtained with Epson Perfection V600 Photo.
Another experiment relates to MEK1/2. The experiment can be described thus: Western blot of MEK1/2 protein levels in HT-29 cells. Conditions: 24 h. For orientation: A western blot detects proteins with antibodies after separation by electrophoresis.
In another experiment the test system is SK-MEL-28 cells. The experiment can be described thus: WST-8 cell viability assay, SK-MEL-28. As to conditions: WST-8 3 d serial dilutions. How it is done:
(§1) Cells were fixed and stained by crystal violet.
(§2) Cells (2000 cells per well) were seeded into 96-well microplates. After 20 h, cells were treated with 0.1% DMSO or indicated serial dilutions of compounds in duplicate or triplicate for 3 days. Cell viability was tested using MTT (M6494, Thermo Fisher Scientific) or WST-8 reagent (CK04, Dojindo). Briefly, 12 mM MTT was prepared in PBS or WST-8 reagent was warmed up to room temperature. 20 μL MTT or CCK-8 was then added to each well and the plates were kept in incubator at 37° C. for 3 h in the dark. For the WST-8 assay, signal was obtained after the incubation. For the MTT assay, cell medium was replaced with 200 μL of DMSO after the incubation, and then cell plates were kept at 37° C. for another 30 min. Absorbance signals for MTT and WST-8 were read at 540 nm and 450 nm respectively, with 690 nm as reference performed with Infinite F PLEX plate reader (TECAN, Morrisville, NC, USA). GI50 values were analyzed using GraphPad Prism 8 from the data of at least three independent experiments.

For experiment [2], the system named is HT-29 cells. Put plainly: WST-8 cell viability assay, HT-29. Conditions: WST-8 3 d serial dilutions, clonogenic assay 10 d. How it is done: as §1, §2
(In general: Tetrazolium dyes change colour on reduction, which living cells bring about.)

Where [3] appears, read: HT-29 cells, 0.3 μM, 1 μM and 3 μM, western blot normalized with α-tubulin.

Description for MEK1/2: Compound concentrations are 0.3 μM, 1 μM and 3 μM.
The indicated protein levels were determined by Western blots.
The sample was centrifuged at 12,000 g for 10 min at 4° C. to get supernatant as cell lysate. Protein concentrations were quantified using Pierce rapid gold BCA protein assay kit.

Turning to `O=C1CCC(N2C(=O)c3cccc(NCCNCCCONC(=O)c4ccc(F)c(F)c4Nc4ccc(I)cc4F)c3C2=O)C(=O)N1` (stereo not drawn) [CPD-024, N-(3-((2-((2-(2,6-dioxopiperidin-3-yl)-1,3-dioxoisoindolin-4-yl)amino)ethyl)amino)propoxy)-3,4-difluoro-2-((2-fluoro-4-iodophenyl)amino)benzamide], in the experiment with HT-29 cells [1], growth was halved (GI50) at 0.4 ± 0.01 µM. For the same molecule, the “MEK1 and MEK2 protein levels” value in the experiment with MEK1/2 (setting [3]) was “not”.

Regarding `O=C1CCC(N2C(=O)c3ccc(NCCCNCCCONC(=O)c4ccc(F)c(F)c4Nc4ccc(I)cc4F)cc3C2=O)C(=O)N1` (stereo not drawn) [CPD-041, N-(3-((3-((2-(2,6-dioxopiperidin-3-yl)-1,3-dioxoisoindolin-5-yl)amino)propyl)amino)propoxy)-3,4-difluoro-2-((2-fluoro-4-iodophenyl)amino)benzamide], the 50% growth inhibitory concentration (GI50) – broadly, the concentration at which growth is held to half of that of the control – in the experiment on HT-29 cells [1] was 0.5 ± 0.2 µM. Besides, in the experiment with MEK1/2 (setting [3]), the “MEK1 and MEK2 protein levels” value is given as “not”. The like results for `O=C1CCC(N2C(=O)c3ccc(NCCCCCCCNCCCONC(=O)c4ccc(F)c(F)c4Nc4ccc(I)cc4F)cc3C2=O)C(=O)N1` (stereo not drawn) [CPD-045, N-(3-((7-((2-(2,6-dioxopiperidin-3-yl)-1,3-dioxoisoindolin-5-yl)amino)heptyl)amino)propoxy)-3,4-difluoro-2-((2-fluoro-4-iodophenyl)amino)benzamide] were, in that order, 0.5 ± 0.2 µM and “significantly degraded”. Consider `Cc1ncsc1-c1ccc(CNC(=O)[C@@H]2C[C@@H](O)CN2C(=O)[C@@H](NC(=O)CCCCCCCCCCNCCCONC(=O)c2ccc(F)c(F)c2Nc2ccc(I)cc2F)C(C)(C)C)cc1` [CPD-014, (2S,4R)-1-((S)-20-(tert-butyl)-1-(3,4-difluoro-2-((2-fluoro-4-iodophenyl)amino)phenyl)-1,18-dioxo-3-oxa-2,7,19-triazahenicosan-21-oyl)-4-hydroxy-N-(4-(4-methylthiazol-5-yl)benzyl)pyrrolidine-2-carboxamide], for which halving of growth in the experiment with HT-29 cells [1] (GI50) required 0.4 ± 0.2 µM. For the same molecule, the “MEK1 and MEK2 protein levels” value with MEK1/2 (setting [3]) was “reduced”. The matching figures for `Cc1ncsc1-c1ccc(CNC(=O)[C@@H]2C[C@@H](O)CN2C(=O)[C@@H](NC(=O)CCCCCCNCCCONC(=O)c2ccc(F)c(F)c2Nc2ccc(I)cc2F)C(C)(C)C)cc1` [CPD-001, (2S,4R)-1-((S)-16-(tert-Butyl)-1-(3,4-difluoro-2-((2-fluoro-4-iodophenyl)amino)phenyl)-1,14-dioxo-3-oxa-2,7,15-triazaheptadecan-17-oyl)-4-hydroxy-N-(4-(4-methylthiazol-5-yl)benzyl)pyrrolidine-2-carboxamide]: 1.4 ± 0.2 µM and “reduced”. The like results for `O=C1CCC(N2C(=O)c3ccc(NCCCCCNCCCONC(=O)c4ccc(F)c(F)c4Nc4ccc(I)cc4F)cc3C2=O)C(=O)N1` (stereo not drawn) [CPD-043, N-(3-((5-((2-(2,6-dioxopiperidin-3-yl)-1,3-dioxoisoindolin-5-yl)amino)pentyl)amino)propoxy)-3,4-difluoro-2-((2-fluoro-4-iodophenyl)amino)benzamide] were, in that order, 0.5 ± 0.1 µM and “significantly degraded”. Consider `O=C(NOC[C@H](O)CO)c1ccc(F)c(F)c1Nc1ccc(I)cc1F` [PD0325901, reference compound], for which the “MEK1 and MEK2 protein levels” value in the experiment on MEK1/2 (HT-29 cells, 0.1, 0.3, or 1 μM) was “not”. On to `O=C1CCC(N2C(=O)c3cccc(NCCOCCNCCCONC(=O)c4ccc(F)c(F)c4Nc4ccc(I)cc4F)c3C2=O)C(=O)N1` (stereo not drawn) [CPD-019, N-(3-((2-(2-((2-(2,6-dioxopiperidin-3-yl)-1,3-dioxoisoindolin-4-yl)amino)ethoxy)ethyl)amino)propoxy)-3,4-difluoro-2-((2-fluoro-4-iodophenyl)amino)benzamide], for which the GI50 with HT-29 cells [1] was 1.2 ± 0.2 µM. The “MEK1 and MEK2 protein levels” value in the experiment with MEK1/2 (setting [3]) is reported as “not”. As to `Cc1ncsc1-c1ccc([C@H](C)NC(=O)[C@H]2C[C@H](O)CN2C(=O)[C@@H](NC(=O)CCCCCCCCCCN(C)CCCONC(=O)c2ccc(F)c(F)c2Nc2ccc(I)cc2F)C(C)(C)C)cc1` [CPD-053, (2R,4S)-1-((S)-20-(tert-butyl)-1-(3,4-difluoro-2-((2-fluoro-4-iodophenyl)amino)phenyl)-7-methyl-1,18-dioxo-3-oxa-2,7,19-triazahenicosan-21-oyl)-4-hydroxy-N-((S)-1-(4-(4-methylthiazol-5-yl)phenyl)ethyl)pyrrolidine-2-carboxamide], the growth of cells entry in the experiment with SK-MEL-28 cells and in the experiment on HT-29 cells [2] was “did not significantly suppress” each time. Molecule `O=C1CCC(N2C(=O)c3ccc(NCCOCCOCCOCCOCCNCCCONC(=O)c4ccc(F)c(F)c4Nc4ccc(I)cc4F)cc3C2=O)C(=O)N1` (stereo not drawn) [CPD-050, N-((1-((2-(2,6-dioxopiperidin-3-yl)-1,3-dioxoisoindolin-5-yl)amino)-3,6,9,12-tetraoxa-15-azaoctadecan-18-yl)oxy)-3,4-difluoro-2-((2-fluoro-4-iodophenyl)amino)benzamide] returned a 50% growth inhibitory concentration (GI50) in the experiment on HT-29 cells [1] of 0.5 ± 0.06 µM. The “MEK1 and MEK2 protein levels” value with MEK1/2 (setting [3]) is reported as “significantly degraded”. The like results for `O=C1CCC(N2C(=O)c3ccc(NCCCCCCCCNCCCONC(=O)c4ccc(F)c(F)c4Nc4ccc(I)cc4F)cc3C2=O)C(=O)N1` (stereo not drawn) [CPD-046, N-(3-((8-((2-(2,6-dioxopiperidin-3-yl)-1,3-dioxoisoindolin-5-yl)amino)octyl)amino)propoxy)-3,4-difluoro-2-((2-fluoro-4-iodophenyl)amino)benzamide] were, in that order, 0.3 ± 0.1 µM and “significantly degraded”. The matching figures for `Cc1ncsc1-c1ccc(CNC(=O)[C@@H]2C[C@@H](O)CN2C(=O)[C@@H](NC(=O)COCCOCCOCCNCCCONC(=O)c2ccc(F)c(F)c2Nc2ccc(I)cc2F)C(C)(C)C)cc1` [CPD-015, (2S,4R)-1-((S)-20-(tert-butyl)-1-(3,4-difluoro-2-((2-fluoro-4-iodophenyl)amino)phenyl)-1,18-dioxo-3,10,13,16-tetraoxa-2,7,19-triazahenicosan-21-oyl)-4-hydroxy-N-(4-(4-methylthiazol-5-yl)benzyl)pyrrolidine-2-carboxamide]: 1.3 ± 0.1 µM and “reduced”. Turning to `Cc1ncsc1-c1ccc(CNC(=O)[C@@H]2C[C@@H](O)CN2C(=O)[C@@H](NC(=O)COCCOCCNCCCONC(=O)c2ccc(F)c(F)c2Nc2ccc(I)cc2F)C(C)(C)C)cc1` [CPD-012, (2S,4R)-1-((S)-17-(tert-butyl)-1-(3,4-difluoro-2-((2-fluoro-4-iodophenyl)amino)phenyl)-1,15-dioxo-3,10,13-trioxa-2,7,16-triazaoctadecan-18-oyl)-4-hydroxy-N-(4-(4-methylthiazol-5-yl)benzyl)pyrrolidine-2-carboxamide], the GI50 in the experiment with HT-29 cells [1] is 1.6 ± 0.3 µM. Still for that read-out and setting: the result for `Cc1ncsc1-c1ccc([C@H](C)NC(=O)[C@@H]2C[C@@H](O)CN2C(=O)[C@@H](NC(=O)CCCCCCCCCNCCCONC(=O)c2ccc(F)c(F)c2Nc2ccc(I)cc2F)C(C)(C)C)cc1` [CPD-036, (2S,4R)-1-((S)-19-(tert-butyl)-1-(3,4-difluoro-2-((2-fluoro-4-iodophenyl)amino)phenyl)-1,17-dioxo-3-oxa-2,7,18-triazaicosan-20-oyl)-4-hydroxy-N—((S)-1-(4-(4-methylthiazol-5-yl)phenyl)ethyl)pyrrolidine-2-carboxamide] reads 0.24 ± 0.055 µM. In the experiment with HT-29 cells [1], `O=C1CCC(N2C(=O)c3cccc(NCCCNCCCONC(=O)c4ccc(F)c(F)c4Nc4ccc(I)cc4F)c3C2=O)C(=O)N1` (stereo not drawn) [CPD-025, N-(3-((3-((2-(2,6-dioxopiperidin-3-yl)-1,3-dioxoisoindolin-4-yl)amino)propyl)amino)propoxy)-3,4-difluoro-2-((2-fluoro-4-iodophenyl)amino)benzamide] displayed a 50% growth inhibitory concentration (GI50) of 1.1 ± 0.07 µM. `Cc1ncsc1-c1ccc(CNC(=O)[C@@H]2C[C@@H](O)CN2C(=O)[C@@H](NC(=O)CCOCCOCCNCCCONC(=O)c2ccc(F)c(F)c2Nc2ccc(I)cc2F)C(C)(C)C)cc1` [CPD-004, (2S,4R)-1-((S)-18-(tert-Butyl)-1-(3,4-difluoro-2-((2-fluoro-4-iodophenyl)amino)phenyl)-1,16-dioxo-3,10,13-trioxa-2,7,17-triazanonadecan-19-oyl)-4-hydroxy-N-(4-(4-methylthiazol-5-yl)benzyl)pyrrolidine-2-carboxamide] showed a 50% growth inhibitory concentration (GI50) in the experiment with HT-29 cells [1] of 1.6 ± 0.3 µM.
